The values below come from patent US20110152275A1, “AGENT FOR MAINTENANCE OF INDUCED REMISSION” (priority 2008, published 2011).

Each structure is given as a SMILES string.

For the assay, the system named is rat adjuvant-induced arthritis model. As to the kind of experiment: Rat adjuvant-induced arthritis model. Particulars: for infiltration of inflammatory cells into the joint after switching from MTX: MTX 0th to 10th day then Compound 1 1 mg/kg to 24th day; for overall effect on the arthritis (summary): summary of leg volume results, injected and non-injected legs. The class given is in vivo. The protocol:
There were intracutaneously injected 0.05 mL (0.6 mg/animal) each of a suspension of killed M. butyricum (12 mg/mL) in liquid paraffin into the back of the right hind legs of 8-week-old female rats of LEW/CrlCrlj line (available from Japan Charles-River Co., Ltd.) to thus induce the arthritis (the 0th day). Then 0.5 mL (per body weight of 100 g) each of an agent solution prepared using a 0.5% methyl cellulose (0.5% MC) was orally administered to each of the test animals. To the adjuvant-injected control animal group, there was administered only the 0.5% MC. Methotrexate (MTX, available from Sigma Company) (0.1 mg/kg) was administered to each test animal, once a day, during the term extending from the 0th day to the 10th day, every day. On or after the 11th day, (R)-2-amino-5-[2-chloro-4-(3-trifluoro methylphenylthio)phenyl]-2-methyl-1-pentanol hydrochloride (hereunder simply referred to as “Compound 1”) (1 mg/kg) was administered to the test animals, instead of methotrexate, once a day up to the 24th day every day. The evaluation of the arthritis was carried out according to the following procedures: The volumes of the right and left hind legs of each test animal were determined on the 0th, 8th, 11th, 14th, 18th, 21st and 25th days of the testing period using a volume-determining meter (MK-550 available from Muromachi Machine, Co., Ltd.) and then the rate of increase in the volume of the hind leg was determined for each of the right and left hind legs of each individual test animal. Then there was prepared a pathological specimen (stained with hematoxylin eosin) of a joint extending from the distal end of the shinbone to the tarsalia to evaluate the degree of the infiltration of inflammatory cells into the joint.
In case of the adjuvant-induced arthritis, acute inflammation, whose far advanced stage is observed on around 3rd day, is recognized on the adjuvant-injected leg and thereafter it is once degenerated. Then the systemic inflammation due to the systemic immunological abnormality is initiated on about 10th day and as a result, the onset of arthritis is observed on the non-injected leg in parallel with the injected leg.

The mark [1] stands for this setting: adjuvant-injected leg, MTX 0.1 mg/kg orally once a day, 0th to 10th day, observed 8th to 11th day, FIG. 1.

Consider `C[C@](N)(CO)CCCc1ccc(Sc2cccc(C(F)(F)F)c2)cc1Cl.Cl` [Compound 1, (R)-2-amino-5-[2-chloro-4-(3-trifluoromethylphenylthio)phenyl]-2-methyl-1-pentanol hydrochloride], for which the “overall effect on the arthritis (summary)” value was “could maintain the MTX-suppressed condition of the symptom of the arthritis”. Besides, under “adjuvant-injected leg, MTX 0.1 mg/kg 0th to 10th day, then Compound 1 1 mg/kg orally once a day 11th to 24th day, FIG. 1”, the “progress of the arthritis after switching from MTX” value is “the progress of the arthritis was inhibited”. Further, the “infiltration of inflammatory cells into the joint after switching from MTX” value (injected leg, pathological specimen, observed 25th day, FIG. 3E) is “any infiltration of inflammatory cells into the joint was suppressed”. Under “non-injected leg, MTX 0.1 mg/kg 0th to 10th day, then Compound 1 1 mg/kg orally once a day 11th to 24th day, FIG. 2”, the “onset of the arthritis after switching from MTX” value is given as “the onset of the arthritis was suppressed”. Further, under “non-injected legs, pathological specimen”, the “infiltration of inflammatory cells into the joint after switching from MTX” value is listed as “any infiltration of inflammatory cells into the joint was found to be suppressed”.
For `CN(Cc1cnc2nc(N)nc(N)c2n1)c1ccc(C(=O)N[C@@H](CCC(=O)O)C(=O)O)cc1` [MTX, Methotrexate], the “overall effect on the arthritis (summary)” value is “could suppress the onset and progress of arthritis, but the arthritis was immediately advanced when stopping the administration thereof”. The “symptom of arthritis after stopping administration” value (adjuvant-injected leg, MTX 0th to 10th day, discontinued on and after 11th day, FIG. 1) is reported as “the symptom of arthritis was again advanced”. Further, under setting [1], the “increase in the volume of the leg” value was “there was not observed any increase in the volume of the leg” and the “progress of the arthritis” value was “the progress of the arthritis was found to be inhibited”. For the same molecule, the “infiltration of inflammatory cells into the joint” value (injected leg, pathological specimen (hematoxylin eosin), MTX 0th to 10th day, observed 11th day, FIG. 3B) is “any infiltration of inflammatory cells into the joint was suppressed”. Moreover, for the setting “injected leg, pathological specimen, MTX 0th to 10th day then stopped, observed 25th day, FIG. 3D”, the “infiltration of inflammatory cells into the joint after stopping administration” value is on record as “the conspicuous infiltration of inflammatory cells into the joint was recognized”. The “arthritis after stopping administration” value (non-injected leg, MTX 0th to 10th day, discontinued on and after 11th day, FIG. 2) was “the arthritis was initiated when stopping the administration of MTX”. In addition, the “onset of the arthritis” value (non-injected leg, MTX 0.1 mg/kg orally 0th to 10th day, at the 11th day, FIG. 2) is “the onset of the arthritis in the non-injected leg was suppressed”.
